Data on three molecules can be found in ChEMBL document CHEMBL5465560, “Selectivity Literature for EUbOPEN Chemogenomic Library” (2024).

In assay [1] the target is T1, Phosphatidylinositol 4,5-bisphosphate 3-kinase catalytic subunit delta isoform (Homo sapiens) (UniProt O00329).
T1 sequence (whole entry): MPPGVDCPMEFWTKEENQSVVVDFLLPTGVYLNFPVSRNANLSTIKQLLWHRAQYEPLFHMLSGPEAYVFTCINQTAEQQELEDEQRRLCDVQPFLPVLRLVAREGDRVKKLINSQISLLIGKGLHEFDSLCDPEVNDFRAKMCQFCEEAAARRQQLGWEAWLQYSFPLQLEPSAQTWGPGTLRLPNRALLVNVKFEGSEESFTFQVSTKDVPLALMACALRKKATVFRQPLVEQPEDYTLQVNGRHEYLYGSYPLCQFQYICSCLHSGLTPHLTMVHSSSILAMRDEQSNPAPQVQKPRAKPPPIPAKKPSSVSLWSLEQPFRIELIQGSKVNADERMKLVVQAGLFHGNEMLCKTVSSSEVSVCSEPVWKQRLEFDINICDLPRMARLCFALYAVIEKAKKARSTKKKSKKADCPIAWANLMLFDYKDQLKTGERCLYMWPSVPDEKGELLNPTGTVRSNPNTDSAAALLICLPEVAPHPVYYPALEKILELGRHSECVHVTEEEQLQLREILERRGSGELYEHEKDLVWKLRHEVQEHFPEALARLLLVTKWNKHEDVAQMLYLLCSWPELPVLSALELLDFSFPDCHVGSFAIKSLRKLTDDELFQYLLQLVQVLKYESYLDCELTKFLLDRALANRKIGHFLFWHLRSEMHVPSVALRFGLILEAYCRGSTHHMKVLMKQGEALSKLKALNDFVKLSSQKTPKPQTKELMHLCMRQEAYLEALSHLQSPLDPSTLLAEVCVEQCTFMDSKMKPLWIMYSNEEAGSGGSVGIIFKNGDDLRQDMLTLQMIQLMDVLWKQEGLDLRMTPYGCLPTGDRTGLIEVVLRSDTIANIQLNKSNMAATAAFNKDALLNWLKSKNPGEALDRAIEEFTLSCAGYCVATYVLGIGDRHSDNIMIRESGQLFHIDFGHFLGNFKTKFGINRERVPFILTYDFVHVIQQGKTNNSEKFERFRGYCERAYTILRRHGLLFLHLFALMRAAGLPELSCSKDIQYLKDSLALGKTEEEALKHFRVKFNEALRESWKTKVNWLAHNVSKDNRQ
As to the kind of experiment: Selectivity interaction (KinomeScan (DiscoverX)) EUB0001079a PIK3CD. The following applies: at 1 µM.

For assay [2], the target named is T2, Myosin-IIIb (Homo sapiens) (UniProt Q8WXR4).
T2 sequence (whole entry): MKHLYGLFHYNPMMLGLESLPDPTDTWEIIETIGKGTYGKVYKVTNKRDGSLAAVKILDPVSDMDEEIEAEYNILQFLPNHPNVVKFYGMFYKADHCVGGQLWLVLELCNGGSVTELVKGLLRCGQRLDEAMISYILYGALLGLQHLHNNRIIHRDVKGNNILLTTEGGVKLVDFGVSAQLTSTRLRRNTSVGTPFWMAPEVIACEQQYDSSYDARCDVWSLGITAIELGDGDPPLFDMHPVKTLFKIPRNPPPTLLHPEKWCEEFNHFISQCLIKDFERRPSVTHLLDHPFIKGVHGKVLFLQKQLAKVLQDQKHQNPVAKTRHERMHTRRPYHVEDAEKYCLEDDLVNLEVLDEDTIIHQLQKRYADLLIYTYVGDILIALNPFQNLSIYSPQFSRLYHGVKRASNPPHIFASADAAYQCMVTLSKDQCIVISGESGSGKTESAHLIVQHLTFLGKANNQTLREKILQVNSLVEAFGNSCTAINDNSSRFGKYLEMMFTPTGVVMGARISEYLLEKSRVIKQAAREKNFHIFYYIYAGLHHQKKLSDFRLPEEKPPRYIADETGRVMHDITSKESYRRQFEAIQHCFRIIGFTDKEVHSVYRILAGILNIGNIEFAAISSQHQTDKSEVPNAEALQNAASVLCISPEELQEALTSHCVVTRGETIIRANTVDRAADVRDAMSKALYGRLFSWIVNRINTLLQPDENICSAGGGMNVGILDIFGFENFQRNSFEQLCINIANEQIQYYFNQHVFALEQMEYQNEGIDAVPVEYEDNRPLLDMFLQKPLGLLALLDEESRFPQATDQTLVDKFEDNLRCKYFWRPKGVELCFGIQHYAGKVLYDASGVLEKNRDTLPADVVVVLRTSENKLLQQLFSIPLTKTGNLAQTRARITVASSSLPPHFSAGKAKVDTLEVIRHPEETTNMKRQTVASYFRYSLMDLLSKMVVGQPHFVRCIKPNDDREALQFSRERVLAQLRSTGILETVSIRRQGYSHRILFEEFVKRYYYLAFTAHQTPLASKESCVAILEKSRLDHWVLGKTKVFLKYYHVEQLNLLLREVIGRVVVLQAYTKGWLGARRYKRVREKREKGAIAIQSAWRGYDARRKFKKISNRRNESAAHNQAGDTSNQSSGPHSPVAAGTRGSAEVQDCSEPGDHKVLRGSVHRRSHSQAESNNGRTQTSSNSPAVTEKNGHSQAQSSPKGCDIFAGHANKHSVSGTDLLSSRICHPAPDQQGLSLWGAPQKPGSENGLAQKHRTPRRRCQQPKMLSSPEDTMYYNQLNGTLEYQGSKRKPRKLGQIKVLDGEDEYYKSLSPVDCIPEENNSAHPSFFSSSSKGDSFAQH
Kind of assay: Selectivity interaction (KinomeScan (DiscoverX)) EUB0000092b MYO3B. To be noted: at 10 µM.

For assay [3], the target named is T3, Rhodopsin kinase GRK7 (Homo sapiens) (UniProt Q8WTQ7).
T3 sequence (whole entry): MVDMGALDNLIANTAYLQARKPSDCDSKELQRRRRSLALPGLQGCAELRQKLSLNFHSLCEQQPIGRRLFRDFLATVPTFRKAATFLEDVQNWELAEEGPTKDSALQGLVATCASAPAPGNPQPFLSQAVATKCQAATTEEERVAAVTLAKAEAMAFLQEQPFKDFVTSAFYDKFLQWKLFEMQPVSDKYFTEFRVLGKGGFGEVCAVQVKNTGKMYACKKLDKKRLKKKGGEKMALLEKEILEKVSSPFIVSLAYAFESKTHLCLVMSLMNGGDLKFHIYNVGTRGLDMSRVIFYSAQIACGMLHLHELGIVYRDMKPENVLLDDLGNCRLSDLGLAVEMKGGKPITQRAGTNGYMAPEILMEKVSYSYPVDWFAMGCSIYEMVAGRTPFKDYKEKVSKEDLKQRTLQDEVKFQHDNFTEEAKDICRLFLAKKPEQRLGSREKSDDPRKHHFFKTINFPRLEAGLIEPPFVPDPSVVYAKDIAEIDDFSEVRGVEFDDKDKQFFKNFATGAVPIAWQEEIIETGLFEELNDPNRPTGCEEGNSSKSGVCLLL
As to the kind of experiment: Selectivity interaction (KinomeScan (DiscoverX)) EUB0000607a GRK7. To be noted: at 10 µM.

Turning to `Nc1cnc(N2CCc3cc(S(=O)(=O)Nc4c(F)cc(Cl)cc4F)cc(N4CCCC4=O)c32)nc1` [TP-020n], the % of control in assay [1] was found to be 88%. `CCC(=O)N1CCN(c2ccc(-n3c(=O)ccc4cnc5ccc(-c6cnc7ccccc7c6)cc5c43)cc2C(F)(F)F)CC1`: in assay [2], the % of control was found to be 100%.

On to `CNC(=O)Nc1ccc(-c2nc(N3CC4CCC(C3)O4)c3cnn(C4CCC5(CC4)OCCO5)c3n2)cc1`, for which the % of control in assay [3] amounted to 91%.
